Some test systems named below: MALME-3M melanoma; HL-60(TB) leukemia; OVCAR-4 ovarian; U251 CNS; SF-295 CNS; LOX IMVI melanoma; NCI-H460 lung; RXF 393 renal; HCC-2998 colon; OVCAR-8 ovarian.
What all share (assay): NCI anticancer screen, dose series, 48 h

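Exposure lasted 48 hours, with cells grown in 96-well plates and compounds tested at five concentrations. TGI: concentration producing complete growth inhibition.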

In the case of `COC(=O)C(C)(N=Cc1ccccc1)c1ccccc1` (centres undefined), the TGI with MALME-3M melanoma, in the assay on HL-60(TB) leukemia, with OVCAR-4 ovarian, in the assay with U251 CNS, in the assay with SF-295 CNS and in the assay with LOX IMVI melanoma was above 100 µM throughout. Moreover, the TGI in the assay on NCI-H460 lung, with RXF 393 renal, in the assay with HCC-2998 colon and in the assay with OVCAR-8 ovarian was above 100 µM in each case.
In the case of `Cn1ccn2c3nc4ccccc4nc3c(=O)c(C#N)c12`, the TGI in the assay with MALME-3M melanoma, in the assay with HL-60(TB) leukemia, in the assay on OVCAR-4 ovarian, in the assay on U251 CNS, in the assay on SF-295 CNS and in the assay on LOX IMVI melanoma was above 100 µM throughout. In addition, the TGI in the assay with NCI-H460 lung, with RXF 393 renal, in the assay with HCC-2998 colon and in the assay with OVCAR-8 ovarian was above 100 µM in each case.
In the case of `CC(C)[C@@H]1CC[C@@H](C)C[C@H]1OC(=O)/C=C1/C2C=CC(O2)C1C(=O)O[C@@H]1C[C@H](C)CC[C@H]1C(C)C` (some centres undefined), the TGI with MALME-3M melanoma, in the assay with HL-60(TB) leukemia, in the assay on OVCAR-4 ovarian, in the assay with U251 CNS, in the assay on SF-295 CNS and in the assay on LOX IMVI melanoma was above 100 µM throughout. Besides, the TGI in the assay on NCI-H460 lung, in the assay with RXF 393 renal, in the assay on HCC-2998 colon and in the assay with OVCAR-8 ovarian was above 100 µM each time.
Take `COc1cc(OC)c2c(O)c3c(cc2c1)CC(C)(C)CC3=O`: the TGI in the assay with MALME-3M melanoma, in the assay on HL-60(TB) leukemia, in the assay on OVCAR-4 ovarian, in the assay with U251 CNS, with SF-295 CNS and with LOX IMVI melanoma was above 100 µM throughout. Also, the TGI in the assay with NCI-H460 lung, with RXF 393 renal, in the assay with HCC-2998 colon and in the assay on OVCAR-8 ovarian was above 100 µM each time.
With `O=c1c(SSc2coc3cc(F)ccc3c2=O)coc2cc(F)ccc12`, the TGI is above 100 µM in the assay on MALME-3M melanoma; 54.7 µM in the assay with HL-60(TB) leukemia; 79 µM in the assay on U251 CNS; above 100 µM with SF-295 CNS; 8.21 µM in the assay on LOX IMVI melanoma; 98.3 µM in the assay on NCI-H460 lung. Further, the TGI is above 100 µM in the assay with RXF 393 renal, 35.6 µM in the assay on HCC-2998 colon and above 100 µM in the assay with OVCAR-8 ovarian.
On to `O=C(Nc1nc2ccccc2n1Cc1ccccc1)NC12CC3CC(CC(C3)C1)C2`, for which the TGI with MALME-3M melanoma is above 100 µM; in the assay on HL-60(TB) leukemia it was above 100 µM; in the assay with OVCAR-4 ovarian, 82.8 µM; with U251 CNS it was above 100 µM; with SF-295 CNS it was 37 µM; in the assay on LOX IMVI melanoma, above 100 µM. The TGI was above 100 µM in the assay on NCI-H460 lung, 93.8 µM in the assay on RXF 393 renal, above 100 µM with HCC-2998 colon and above 100 µM in the assay on OVCAR-8 ovarian.
In the case of `COC(=O)C(CCc1ccccc1I)C1=CCC2(CC1)OCCO2` (centres undefined), the TGI with MALME-3M melanoma was above 100 µM; in the assay on HL-60(TB) leukemia, 17.4 µM; with OVCAR-4 ovarian it was above 100 µM; with U251 CNS, above 100 µM; in the assay with SF-295 CNS, above 100 µM; in the assay with LOX IMVI melanoma, above 100 µM. Further, the TGI in the assay with NCI-H460 lung is above 100 µM; in the assay on RXF 393 renal, 67.2 µM; in the assay on HCC-2998 colon, above 100 µM; in the assay on OVCAR-8 ovarian, above 100 µM.
For the compound `COC(=O)c1ccccc1C#CC#Cc1ccccc1C(=O)OC`, the TGI with MALME-3M melanoma was above 10 µM; with HL-60(TB) leukemia it was 8.25 µM; in the assay with OVCAR-4 ovarian it was above 10 µM; in the assay with U251 CNS it was above 10 µM; in the assay with SF-295 CNS it was above 10 µM; in the assay with LOX IMVI melanoma it was above 10 µM. Besides, the TGI with NCI-H460 lung, in the assay on RXF 393 renal, with HCC-2998 colon and in the assay on OVCAR-8 ovarian was above 10 µM in each case.
As to `C=CCOc1ccccc1N=N/C(C#N)=N\Nc1ccccc1OCC=C`, the TGI with MALME-3M melanoma, in the assay with HL-60(TB) leukemia, in the assay on OVCAR-4 ovarian, with U251 CNS, in the assay on SF-295 CNS and with LOX IMVI melanoma was above 100 µM throughout. The TGI in the assay with NCI-H460 lung, with RXF 393 renal, with HCC-2998 colon and in the assay with OVCAR-8 ovarian was above 100 µM in each case.
As for `O=C(Nc1nc2c(=O)[nH]cnc2s1)c1ccccc1`, the TGI in the assay with MALME-3M melanoma, with HL-60(TB) leukemia, in the assay on OVCAR-4 ovarian, in the assay on U251 CNS, in the assay with SF-295 CNS and with LOX IMVI melanoma was above 100 µM in each case. Moreover, the TGI in the assay with NCI-H460 lung, in the assay on RXF 393 renal, in the assay with HCC-2998 colon and with OVCAR-8 ovarian was above 100 µM in each case.
Take `O=C1C(NCCc2ccc(O)c(O)c2)=CC(=O)c2ncccc21`: the TGI in the assay with MALME-3M melanoma was found to be 18.4 µM; with HL-60(TB) leukemia, 60.3 µM; in the assay with OVCAR-4 ovarian it was 50.9 µM; in the assay on U251 CNS, 12.8 µM; in the assay on SF-295 CNS, 28.5 µM; in the assay on LOX IMVI melanoma it was 26.7 µM. Further, the TGI is 29.4 µM with NCI-H460 lung, 28.4 µM with RXF 393 renal, 27.8 µM in the assay on HCC-2998 colon and 57.3 µM in the assay with OVCAR-8 ovarian.
Consider `O=C(O)CCCCCOc1cccnc1/C=N/NC1=NCCN1`, for which the TGI in the assay with MALME-3M melanoma, in the assay on HL-60(TB) leukemia, with OVCAR-4 ovarian, with U251 CNS, in the assay with SF-295 CNS and with LOX IMVI melanoma was above 100 µM in each case. In addition, the TGI in the assay with NCI-H460 lung, in the assay with RXF 393 renal, with HCC-2998 colon and in the assay on OVCAR-8 ovarian was above 100 µM each time.
As for `[Se]=P(c1ccccc1)(c1ccccc1)c1ccc(C(c2ccccc2)=P(c2ccccc2)(c2ccccc2)c2ccccc2)cc1`, the TGI with MALME-3M melanoma was 2.51 µM; in the assay on HL-60(TB) leukemia, 1.06 µM; in the assay on OVCAR-4 ovarian, above 33.1 µM; with U251 CNS, 5.25 µM; in the assay on SF-295 CNS, 10.2 µM; in the assay with LOX IMVI melanoma, 2.48 µM. Also, the TGI in the assay with NCI-H460 lung was found to be 10.9 µM; with RXF 393 renal it was 10.9 µM; in the assay on HCC-2998 colon, 11.6 µM; in the assay with OVCAR-8 ovarian it was 8.02 µM.

The record behind these values is PubChem BioAssay (NCI).
